# Results published in ChEMBL document CHEMBL1201862, “PubChem BioAssay data set” (2004).
#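 Five concentrations, 48 hours, 96-well plates. At the GI50, growth is halved.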 Activity calls are given as the source filed them. Rule as the data show it: active = GI50 up to about 1.1 µM and inactive = higher.
# Tests used:
# Test in all cases: NCI-60 cell line screen, 48 h
# [1] = test system: NCI-H226
# [2] = test system: NCI/ADR-RES
# [3] = test system: A498
# [4] = test system: A549
# [5] = test system: MDA-MB-435
# [6] = test system: HT-29
# [7] = test system: T47D
# [8] = test system: SK-MEL-2
# [9] = test system: NCI-H460
# [10] = test system: SK-OV-3
# [11] = test system: NCI-H23
# [12] = test system: LOX IMVI
# [13] = test system: OVCAR-8
# [14] = test system: OVCAR-4
# [15] = test system: SF-268
# [16] = test system: HOP-62
# [17] = test system: MCF7
# [18] = test system: EKVX
# [19] = test system: SW-620
# [20] = test system: HCC 2998
Structure (SMILES),GI50 [1],GI50 [2],GI50 [3],GI50 [4],GI50 [5],GI50 [6],GI50 [7],GI50 [8],GI50 [9],GI50 [10],GI50 [11],GI50 [12],GI50 [13],GI50 [14],GI50 [15],GI50 [16],GI50 [17],GI50 [18],GI50 [19],GI50 [20]
CC(C)C(O)(C(C)C)C(C)C,> 100 µM (inactive),> 100 µM (inactive),> 100 µM (inactive),> 100 µM (inactive),> 100 µM (inactive),> 100 µM (inactive),> 100 µM (inactive),> 100 µM (inactive),> 100 µM (inactive),> 100 µM (inactive),> 100 µM (inactive),> 100 µM (inactive),> 100 µM (inactive),> 100 µM (inactive),> 100 µM (inactive),> 100 µM (inactive),> 100 µM (inactive),> 100 µM (inactive),,
S=C(Nc1c2c(nc3ccccc13)CCCC2)Nc1c2c(nc3ccccc13)CCCC2,> 100 µM (inactive),> 100 µM (inactive),> 100 µM (inactive),> 100 µM (inactive),> 100 µM (inactive),> 100 µM (inactive),> 100 µM (inactive),> 100 µM (inactive),> 100 µM (inactive),> 100 µM (inactive),> 100 µM (inactive),,> 100 µM (inactive),> 100 µM (inactive),> 100 µM (inactive),> 100 µM (inactive),> 100 µM (inactive),> 100 µM (inactive),> 100 µM (inactive),> 100 µM (inactive)
S=C(N/N=C/c1ccccn1)N1CCCCC1,,< 0.01 µM (active),< 0.0461 µM (active),< 0.0129 µM (active),0.163 µM (active),< 0.01 µM (active),< 0.01 µM (active),0.0695 µM (active),< 0.019 µM (active),< 0.01 µM (active),< 0.01 µM (active),< 0.01 µM (active),< 0.01 µM (active),,< 0.0178 µM (active),< 0.01 µM (active),< 0.01 µM (active),0.07 µM (active),< 0.0122 µM (active),1.22 µM (inactive)
CCCCCCCCCCCCCCCCOC[C@H](COC(c1ccccc1)(c1ccccc1)c1ccccc1)O[PH](=S)OC (stereo partly drawn),> 100 µM (inactive),> 100 µM (inactive),> 100 µM (inactive),> 100 µM (inactive),> 100 µM (inactive),> 100 µM (inactive),> 100 µM (inactive),> 100 µM (inactive),> 100 µM (inactive),> 100 µM (inactive),> 100 µM (inactive),> 100 µM (inactive),> 100 µM (inactive),,> 100 µM (inactive),,> 100 µM (inactive),> 100 µM (inactive),> 100 µM (inactive),
CCOC(=O)c1c(OCC)[nH]c(=O)c(C(c2cccs2)c2c(O)c(C(=O)OCC)c(OCC)[nH]c2=O)c1O,3.9 µM (inactive),27.4 µM (inactive),2.67 µM (inactive),14.5 µM (inactive),14.5 µM (inactive),16.1 µM (inactive),0.0989 µM (active),12.8 µM (inactive),13.3 µM (inactive),,21.4 µM (inactive),12.6 µM (inactive),12.6 µM (inactive),17.6 µM (inactive),10.2 µM (inactive),10.4 µM (inactive),14.9 µM (inactive),11.5 µM (inactive),12.1 µM (inactive),13.9 µM (inactive)
Clc1ccc(OCc2nnc(COc3ccc(OCc4nnc(COc5ccc(Cl)cc5Cl)o4)c(Cl)c3)o2)c(Cl)c1,36.2 µM (inactive),24.5 µM (inactive),48.3 µM (inactive),32 µM (inactive),42.7 µM (inactive),27.4 µM (inactive),78.3 µM (inactive),33.8 µM (inactive),72.4 µM (inactive),,48.1 µM (inactive),17.3 µM (inactive),41.4 µM (inactive),,23.5 µM (inactive),51.6 µM (inactive),32.1 µM (inactive),13.6 µM (inactive),70.1 µM (inactive),28.7 µM (inactive)
COc1ccc(C2SC(=N)Nc3c2c(C)nn3C(=O)c2ccncc2)cc1OC (stereo not drawn),> 10 µM (inactive),> 10 µM (inactive),,> 10 µM (inactive),> 10 µM (inactive),> 10 µM (inactive),> 10 µM (inactive),> 10 µM (inactive),> 10 µM (inactive),> 10 µM (inactive),> 10 µM (inactive),> 10 µM (inactive),> 10 µM (inactive),> 10 µM (inactive),> 10 µM (inactive),> 10 µM (inactive),> 10 µM (inactive),> 10 µM (inactive),> 10 µM (inactive),> 10 µM (inactive)
